Laboratory results reported in article PMC7497403, “Development of Potent PfCLK3 Inhibitors Based on TCMDC-135051 as a New Class of Antimalarials” (Journal of Medicinal Chemistry, 2020).

Tests used:
Assay in all cases: Kinase screen
Assay type in all cases: biochemical
[1] = target: FGF-R1 (Homo sapiens, UniProt P11362)
Source text: (§1) With verapamil used as a positive control.
(§2) V. Distribution coefficient (LogD7.4)

[2] = target: MST4 (Homo sapiens, UniProt Q9P289)
Source text: as §1, §2

[3] = target: IRAK1 (Homo sapiens, UniProt P51617)
Sequence of IRAK1 (P51617 whole entry): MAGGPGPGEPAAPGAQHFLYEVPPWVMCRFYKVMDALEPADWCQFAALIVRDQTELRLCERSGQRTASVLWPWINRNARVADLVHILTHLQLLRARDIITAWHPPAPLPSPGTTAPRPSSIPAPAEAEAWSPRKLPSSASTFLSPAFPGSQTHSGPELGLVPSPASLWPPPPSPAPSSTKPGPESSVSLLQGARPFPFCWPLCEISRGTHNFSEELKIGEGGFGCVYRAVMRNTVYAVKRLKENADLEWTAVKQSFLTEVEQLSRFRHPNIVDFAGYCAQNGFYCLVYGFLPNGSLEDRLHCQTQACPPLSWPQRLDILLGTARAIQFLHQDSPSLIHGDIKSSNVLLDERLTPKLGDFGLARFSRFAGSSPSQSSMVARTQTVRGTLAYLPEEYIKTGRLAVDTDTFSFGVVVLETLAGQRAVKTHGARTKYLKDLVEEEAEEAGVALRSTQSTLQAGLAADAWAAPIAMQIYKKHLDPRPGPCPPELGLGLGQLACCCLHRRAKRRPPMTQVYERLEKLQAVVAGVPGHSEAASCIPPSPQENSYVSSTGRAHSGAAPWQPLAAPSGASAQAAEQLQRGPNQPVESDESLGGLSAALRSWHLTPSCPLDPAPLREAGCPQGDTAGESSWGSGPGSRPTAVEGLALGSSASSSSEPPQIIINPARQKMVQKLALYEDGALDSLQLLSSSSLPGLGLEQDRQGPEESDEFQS
Source text: as §1, §2

[4] = target: TESK1 (Homo sapiens, UniProt Q15569)
Source text: as §1, §2

[5] = target: MLK1 (Homo sapiens, UniProt P80192)
Source text: as §1, §2

[6] = target: ERK2 (Homo sapiens, UniProt P28482)
Source text: as §1, §2

[7] = target: TTBK1 (Homo sapiens, UniProt Q5TCY1)
Source text: as §1, §2

[8] = target: PAK5 (Homo sapiens, UniProt Q9P286)
Source text: as §1, §2

[9] = target: CDK9-Cyclin T1 (Homo sapiens, UniProt P50750)
Source text: as §1, §2

[10] = target: TTBK2 (Homo sapiens, UniProt Q6IQ55)
Source text: as §1, §2

[11] = target: EPH-A2 (Homo sapiens, UniProt P29317)
Source text: as §1, §2

[12] = target: PKCa (Homo sapiens, UniProt P17252)
Source text: as §1, §2

[13] = target: ULK1 (Homo sapiens, UniProt O75385)
Sequence of ULK1 (O75385 whole entry): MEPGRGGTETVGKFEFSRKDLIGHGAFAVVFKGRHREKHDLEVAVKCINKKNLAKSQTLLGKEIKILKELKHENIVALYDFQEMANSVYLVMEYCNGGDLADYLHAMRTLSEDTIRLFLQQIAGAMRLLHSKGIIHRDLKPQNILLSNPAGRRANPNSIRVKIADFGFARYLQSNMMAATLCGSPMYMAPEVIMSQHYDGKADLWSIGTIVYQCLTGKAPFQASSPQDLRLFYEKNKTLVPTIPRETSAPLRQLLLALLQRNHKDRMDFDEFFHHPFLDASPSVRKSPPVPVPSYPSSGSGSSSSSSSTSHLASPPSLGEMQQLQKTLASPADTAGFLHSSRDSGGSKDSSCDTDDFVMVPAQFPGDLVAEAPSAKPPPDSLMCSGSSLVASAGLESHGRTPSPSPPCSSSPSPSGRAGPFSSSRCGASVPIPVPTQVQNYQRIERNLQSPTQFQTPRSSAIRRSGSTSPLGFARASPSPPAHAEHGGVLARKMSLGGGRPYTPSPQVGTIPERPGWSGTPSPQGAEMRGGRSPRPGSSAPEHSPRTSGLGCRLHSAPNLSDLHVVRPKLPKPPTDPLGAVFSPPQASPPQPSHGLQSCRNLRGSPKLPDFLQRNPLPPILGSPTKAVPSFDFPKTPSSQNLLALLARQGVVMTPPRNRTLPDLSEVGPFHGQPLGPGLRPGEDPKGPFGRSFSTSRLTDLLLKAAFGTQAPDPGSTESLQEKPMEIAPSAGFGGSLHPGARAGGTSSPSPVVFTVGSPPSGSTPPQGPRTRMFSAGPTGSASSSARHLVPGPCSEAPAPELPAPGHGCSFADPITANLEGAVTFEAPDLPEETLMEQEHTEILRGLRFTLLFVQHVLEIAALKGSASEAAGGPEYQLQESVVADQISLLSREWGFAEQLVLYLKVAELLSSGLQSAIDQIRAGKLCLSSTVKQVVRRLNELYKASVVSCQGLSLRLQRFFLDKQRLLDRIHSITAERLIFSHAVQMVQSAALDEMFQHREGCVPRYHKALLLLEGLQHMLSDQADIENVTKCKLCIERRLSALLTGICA
Source text: as §1, §2

[14] = target: Aurora A (Homo sapiens, UniProt O14965)
Source text: as §1, §2

[15] = target: IR (Homo sapiens, UniProt P06213)
Source text: as §1, §2

[16] = target: SYK (Homo sapiens, UniProt P43405)
Source text: as §1, §2

[17] = target: IRR (Homo sapiens, UniProt P14616)
Source text: as §1, §2

[18] = target: HIPK1 (Homo sapiens, UniProt Q86Z02)
Source text: as §1, §2

[19] = target: CK1γ2 (Homo sapiens, UniProt P78368)
Sequence of CK1γ2 (P78368 whole entry): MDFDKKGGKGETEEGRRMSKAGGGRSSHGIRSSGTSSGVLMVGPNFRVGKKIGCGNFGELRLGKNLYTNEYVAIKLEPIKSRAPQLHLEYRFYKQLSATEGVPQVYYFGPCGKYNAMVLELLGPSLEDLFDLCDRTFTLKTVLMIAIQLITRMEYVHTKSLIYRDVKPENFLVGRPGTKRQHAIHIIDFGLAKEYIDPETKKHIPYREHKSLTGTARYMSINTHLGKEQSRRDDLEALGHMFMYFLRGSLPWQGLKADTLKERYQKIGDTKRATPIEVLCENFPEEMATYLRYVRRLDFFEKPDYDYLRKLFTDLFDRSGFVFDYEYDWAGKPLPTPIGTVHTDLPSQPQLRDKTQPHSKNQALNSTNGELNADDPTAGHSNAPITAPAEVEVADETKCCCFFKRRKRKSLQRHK
Source text: as §1, §2

[20] = target: PHK (Homo sapiens, UniProt Q16816)
Source text: as §1, §2

[21] = target: ROCK 2 (Homo sapiens, UniProt O75116)
Source text: as §1, §2

[22] = target: MST3 (Homo sapiens, UniProt Q9Y6E0)
Source text: as §1, §2

[23] = target: CHK1 (Homo sapiens, UniProt O14757)
Source text: as §1, §2

[24] = target: IGF-1R (Homo sapiens, UniProt P08069)
Source text: as §1, §2

[25] = target: EPH-B1 (Homo sapiens, UniProt P54762)
Source text: as §1, §2

[26] = target: BRK (Homo sapiens, UniProt Q13882)
Source text: as §1, §2

[27] = target: EPH-A4 (Homo sapiens, UniProt P54764)
Source text: as §1, §2

[28] = target: ERK8 (Homo sapiens, UniProt Q8TD08)
Source text: as §1, §2

[29] = target: BRSK1 (Homo sapiens, UniProt Q8TDC3)
Source text: as §1, §2

[30] = target: LKB1 (Homo sapiens, UniProt Q15831)
Source text: as §1, §2

[31] = target: MSK1 (Homo sapiens, UniProt O75582)
Sequence of MSK1 (O75582 whole entry): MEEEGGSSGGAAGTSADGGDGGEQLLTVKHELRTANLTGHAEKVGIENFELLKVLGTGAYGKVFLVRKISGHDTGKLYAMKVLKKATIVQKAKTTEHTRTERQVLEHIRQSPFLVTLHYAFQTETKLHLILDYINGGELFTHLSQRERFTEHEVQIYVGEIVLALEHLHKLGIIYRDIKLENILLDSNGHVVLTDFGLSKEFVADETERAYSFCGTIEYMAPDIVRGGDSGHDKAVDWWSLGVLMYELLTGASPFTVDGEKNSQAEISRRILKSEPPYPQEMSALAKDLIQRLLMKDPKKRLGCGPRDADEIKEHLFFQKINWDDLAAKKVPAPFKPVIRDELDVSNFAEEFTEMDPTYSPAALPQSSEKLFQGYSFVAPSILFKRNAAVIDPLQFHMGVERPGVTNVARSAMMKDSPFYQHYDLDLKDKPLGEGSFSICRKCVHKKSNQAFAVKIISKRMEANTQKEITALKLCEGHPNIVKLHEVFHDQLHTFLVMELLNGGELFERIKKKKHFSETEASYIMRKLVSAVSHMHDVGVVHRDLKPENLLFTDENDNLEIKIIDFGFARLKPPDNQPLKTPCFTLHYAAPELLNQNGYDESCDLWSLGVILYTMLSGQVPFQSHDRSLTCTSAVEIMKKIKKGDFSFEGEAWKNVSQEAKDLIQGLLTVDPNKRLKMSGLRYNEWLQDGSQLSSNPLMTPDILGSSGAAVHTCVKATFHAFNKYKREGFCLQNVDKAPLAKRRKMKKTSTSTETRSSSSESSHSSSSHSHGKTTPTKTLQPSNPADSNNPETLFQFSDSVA
Source text: as §1, §2

[32] = target: PKA (Homo sapiens, UniProt P17612)
Source text: as §1, §2

[33] = target: MARK1 (Homo sapiens, UniProt Q9P0L2)
Sequence of MARK1 (Q9P0L2 whole entry): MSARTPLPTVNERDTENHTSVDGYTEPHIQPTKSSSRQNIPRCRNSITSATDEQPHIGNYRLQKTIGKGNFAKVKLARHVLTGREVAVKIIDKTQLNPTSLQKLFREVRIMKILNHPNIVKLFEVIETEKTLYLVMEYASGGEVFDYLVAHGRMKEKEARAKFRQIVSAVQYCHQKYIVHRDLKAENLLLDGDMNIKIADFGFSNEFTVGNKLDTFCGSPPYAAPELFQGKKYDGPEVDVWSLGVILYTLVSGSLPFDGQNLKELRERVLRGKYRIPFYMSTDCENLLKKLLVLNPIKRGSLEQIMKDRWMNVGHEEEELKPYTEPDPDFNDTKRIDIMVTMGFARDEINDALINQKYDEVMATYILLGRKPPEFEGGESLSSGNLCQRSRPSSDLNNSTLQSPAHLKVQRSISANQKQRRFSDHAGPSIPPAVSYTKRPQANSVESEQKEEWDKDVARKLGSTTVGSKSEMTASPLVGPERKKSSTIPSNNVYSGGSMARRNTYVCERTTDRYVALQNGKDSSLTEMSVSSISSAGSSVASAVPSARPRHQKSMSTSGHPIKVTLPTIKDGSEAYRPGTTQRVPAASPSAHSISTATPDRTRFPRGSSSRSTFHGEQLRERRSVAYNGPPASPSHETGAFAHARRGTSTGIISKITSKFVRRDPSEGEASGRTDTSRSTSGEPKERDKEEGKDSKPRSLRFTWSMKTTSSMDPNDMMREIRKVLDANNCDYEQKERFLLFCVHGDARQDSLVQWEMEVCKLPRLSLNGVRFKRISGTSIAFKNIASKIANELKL
Source text: as §1, §2

[34] = target: EF2K (Homo sapiens, UniProt O00418)
Source text: as §1, §2

[35] = target: SIK2 (Homo sapiens, UniProt Q9H0K1)
Source text: as §1, §2

[36] = target: TTK (Homo sapiens, UniProt P33981)
Source text: as §1, §2

[37] = target: CHK2 (Homo sapiens, UniProt O96017)
Source text: as §1, §2

[38] = target: p38d MAPK (Homo sapiens, UniProt O15264)
Source text: as §1, §2

[39] = target: IRAK4 (Homo sapiens, UniProt Q9NWZ3)
Source text: as §1, §2

[40] = target: HIPK2 (Homo sapiens, UniProt Q9H2X6)
Source text: as §1, §2

[41] = target: RSK2 (Homo sapiens, UniProt P51812)
Source text: as §1, §2

[42] = target: MAP4K3 (Homo sapiens, UniProt Q8IVH8)
Source text: as §1, §2

[43] = target: OSR1 (Homo sapiens, UniProt O95747)
Source text: as §1, §2

[44] = target: HIPK3 (Homo sapiens, UniProt Q9H422)
Source text: as §1, §2

[45] = target: TSSK1 (Homo sapiens, UniProt Q9BXA7)
Source text: as §1, §2

[46] = target: PKCz (Homo sapiens, UniProt Q05513)
Source text: as §1, §2

Sequence of MST4 (Q9P289 whole entry): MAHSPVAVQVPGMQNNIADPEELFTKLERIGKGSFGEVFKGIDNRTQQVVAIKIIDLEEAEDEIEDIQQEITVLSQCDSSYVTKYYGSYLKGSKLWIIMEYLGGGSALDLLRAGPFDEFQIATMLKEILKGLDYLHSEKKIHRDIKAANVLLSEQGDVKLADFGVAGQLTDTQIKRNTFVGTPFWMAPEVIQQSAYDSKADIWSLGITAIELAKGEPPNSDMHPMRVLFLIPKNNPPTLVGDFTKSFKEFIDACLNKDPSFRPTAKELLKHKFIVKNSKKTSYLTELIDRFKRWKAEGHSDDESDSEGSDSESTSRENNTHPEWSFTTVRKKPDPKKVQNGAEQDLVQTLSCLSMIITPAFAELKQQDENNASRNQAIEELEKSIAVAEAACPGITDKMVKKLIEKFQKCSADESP
Sequence of FGF-R1 (P11362 22-822): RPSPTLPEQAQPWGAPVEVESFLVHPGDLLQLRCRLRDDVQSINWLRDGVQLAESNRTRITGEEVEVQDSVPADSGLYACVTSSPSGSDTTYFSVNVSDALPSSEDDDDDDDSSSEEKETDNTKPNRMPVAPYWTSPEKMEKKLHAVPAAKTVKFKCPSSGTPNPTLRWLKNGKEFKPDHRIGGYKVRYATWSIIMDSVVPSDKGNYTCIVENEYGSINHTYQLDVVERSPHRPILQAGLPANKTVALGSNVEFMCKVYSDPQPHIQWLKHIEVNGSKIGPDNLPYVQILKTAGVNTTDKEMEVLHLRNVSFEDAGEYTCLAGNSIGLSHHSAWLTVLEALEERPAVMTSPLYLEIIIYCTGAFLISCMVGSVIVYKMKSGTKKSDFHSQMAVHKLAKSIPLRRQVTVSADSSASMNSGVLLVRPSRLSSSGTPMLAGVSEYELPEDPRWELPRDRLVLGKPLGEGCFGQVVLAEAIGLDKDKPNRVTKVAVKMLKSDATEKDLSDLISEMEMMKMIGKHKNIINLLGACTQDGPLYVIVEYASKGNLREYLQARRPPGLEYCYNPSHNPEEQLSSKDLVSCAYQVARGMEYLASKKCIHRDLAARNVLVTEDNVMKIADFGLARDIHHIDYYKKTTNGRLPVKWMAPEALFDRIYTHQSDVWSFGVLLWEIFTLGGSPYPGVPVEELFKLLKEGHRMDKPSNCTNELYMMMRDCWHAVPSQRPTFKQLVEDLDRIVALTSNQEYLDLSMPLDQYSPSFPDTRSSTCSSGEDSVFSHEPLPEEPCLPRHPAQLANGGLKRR

**Q.** With CCN(CC)Cc1ccc(OC)c(-c2cc3c(-c4ccc(C(=O)O)c(C(C)C)c4)ccnc3[nH]2)c1 [analogue 1, 4-(2-(5-((Diethylamino)methyl)-2-methoxyphenyl)-1H-pyrrolo[2,3-b]pyridin-4-yl)-2-isopropylbenzoic Acid] as the molecule, how does the activity at 1 µM [1] read?
**A.** 50%

**Q.** What about the activity at 1 µM [2] of the same molecule?
**A.** 59%

**Q.** And the activity at 1 µM [3]?
**A.** 6%

**Q.** And the activity at 1 µM [4]?
**A.** 78%

**Q.** And the activity at 1 µM [5]?
**A.** 111%

**Q.** And the activity at 1 µM [6]?
**A.** 115%

**Q.** What about the activity at 1 µM [7] of the same molecule?
**A.** 102%

**Q.** And the activity at 1 µM [8]?
**A.** 75%

**Q.** And the activity at 1 µM [9]?
**A.** 2%

**Q.** And the activity at 1 µM [10]?
**A.** 114%

**Q.** What about the activity at 1 µM [11] of the same molecule?
**A.** 64%

**Q.** And the activity at 1 µM [12]?
**A.** 64%

**Q.** And the activity at 1 µM [13]?
**A.** 80%

**Q.** What about the activity at 1 µM [14] of the same molecule?
**A.** 17%

**Q.** What about the activity at 1 µM [15] of the same molecule?
**A.** 77%

**Q.** What about the activity at 1 µM [16] of the same molecule?
**A.** 89%

**Q.** What about the activity at 1 µM [17] of the same molecule?
**A.** 101%

**Q.** What about the activity at 1 µM [18] of the same molecule?
**A.** 83%

**Q.** What about the activity at 1 µM [19] of the same molecule?
**A.** 93%

**Q.** What about the activity at 1 µM [20] of the same molecule?
**A.** 10%

**Q.** And the activity at 1 µM [21]?
**A.** 92%

**Q.** And the activity at 1 µM [22]?
**A.** 62%

**Q.** What about the activity at 1 µM [23] of the same molecule?
**A.** 78%

**Q.** What about the activity at 1 µM [24] of the same molecule?
**A.** 51%

**Q.** And the activity at 1 µM [25]?
**A.** 124%

**Q.** And the activity at 1 µM [26]?
**A.** 33%

**Q.** What about the activity at 1 µM [27] of the same molecule?
**A.** 83%

**Q.** What about the activity at 1 µM [28] of the same molecule?
**A.** 55%

**Q.** What about the activity at 1 µM [29] of the same molecule?
**A.** 66%

**Q.** And the activity at 1 µM [30]?
**A.** 115%

**Q.** And the activity at 1 µM [31]?
**A.** 99%

**Q.** And the activity at 1 µM [32]?
**A.** 103%

**Q.** What about the activity at 1 µM [33] of the same molecule?
**A.** 52%

**Q.** What about the activity at 1 µM [34] of the same molecule?
**A.** 113%

**Q.** What about the activity at 1 µM [35] of the same molecule?
**A.** 41%

**Q.** And the activity at 1 µM [36]?
**A.** 86%

**Q.** And the activity at 1 µM [37]?
**A.** 77%

**Q.** What about the activity at 1 µM [38] of the same molecule?
**A.** 117%

**Q.** And the activity at 1 µM [39]?
**A.** 24%

**Q.** What about the activity at 1 µM [40] of the same molecule?
**A.** 56%

**Q.** And the activity at 1 µM [41]?
**A.** 87%

**Q.** What about the activity at 1 µM [42] of the same molecule?
**A.** 1%

**Q.** What about the activity at 1 µM [43] of the same molecule?
**A.** 38%

**Q.** What about the activity at 1 µM [44] of the same molecule?
**A.** 93%

**Q.** And the activity at 1 µM [45]?
**A.** 55%

**Q.** And the activity at 1 µM [46]?
**A.** 121%
